The results in this text go back to US8138304B2, “Neural regeneration peptides and formulations thereof” (Neuren Pharmaceuticals Limited, priority 2005, dated 2012).

Where no end group is shown, it is not given here.

The subject of experiment [1] is primary human trophoblasts. As to the kind of experiment: Trophoblast proliferation assay (BrdU incorporation). Format: cell-based. On the procedure:
Cell proliferation was determined by BrdU incorporation to examine the effects of NRP-5RG D6A on the proliferation of trophoblasts. EGF (0.8×10^−9 M) was used as a positive control, since studies have previously shown it plays a role in enhancing trophoblast proliferation (Maruo et al., 1992).
Initially cells were treated with NRP-5RG D6A (SEQ ID NO: 1), EGF and BrdU (0.05 μM) for 72 hrs. After the first 24 hrs, an 80% media change was carried out since BrdU is toxic over long incubation periods. Following 72 hrs of incubation, the reaction was stopped by fixation in 4% PFA. However, with this experimental design, most trophoblasts would form syncytia by the end of the 72 hrs, hindering accurate examination of the proliferative effect of NRP-5RG D6A on trophoblasts. […] This allowed analysis of proliferation of mononuclear trophoblasts.
Cell proliferation was evaluated over 24 hrs after seeding 1.3×10^5 cells/cm^2 in culture media (1% serum) treated with 0.05 μM BrdU, NRP-5RG D6A and EGF (FIG. 13).
A general note: Incorporation of labelled thymidine or its analogues reports DNA synthesis.

In experiment [2] the test system is human primary trophoblasts. Briefly: Trophoblast haptotactic migration (Boyden chamber) assay. Format: cell-based. To be noted: 0.1 ng/ml coating, 100 fM in inserts; 22 hrs. The protocol:
Human trophoblast cells were isolated from term placentas with prior approval by the Ethics Committee of the University of Auckland and consent of the patients. The maternal decidua was removed, exposing the villous interior of the placenta. Pieces of villous tissue were cut out and washed thoroughly with PBS before digestion using 0.25% trypsin. The digest was then diluted in Locke Ringers Buffer and DNAase I. Digestion of connective tissue surrounding the placental cells was carried out while stirring the mixture with a magnetic stirrer at a temperature of 37° C. The process was repeated 8 times, with the last 6 supernatants being collected in a bottle containing fetal bovine serum (FBS). The digestion step produced a heterogeneous dispersed cell preparation. The pooled supernates was centrifuged for 7 minutes at 1200 rpm. The cell pellet was resuspended in PBS and centrifuged. […]
Cells were then purified using a percoll gradient (5, 20, 30, 35, 40, 50 and 60%). […] This band was collected, the cells washed in M199 medium centrifuged and finally counted and plated according to the methods of Keelan et al, 1998. […]
Under control conditions, the bottom of the chamber is not pre-coated with a putative chemoattractive agent. […] Thus, the number of migratory cells can be quantified. […]

The next experiment has as its system cerebellar microexplants. As to the kind of experiment: Cerebellar microexplant survival assay (3-NP/glutamate injury). The class given is cell-based, Wistar rat. Conditions: 100 fM; administered simultaneously with toxins (0.5 mM 3-NP, 0.5 mM glutamate), severe injury. On the procedure:
Laminated cerebellar cortices of the two hemispheres were explanted from a P3, P4, P7 or P8 Wistar rat, cut into small pieces in GBSS with 0.65% D(+)glucose solution, and triturated by a 0.4 mm gauge needle and subsequently pressed through a 125 μm pore size sieve. The obtained microexplants were centrifuged (60×g) 2 times for a medium exchange into serum-free BSA-supplemented START V-medium (Biochrom). Finally, the microexplants were reconstituted in 500 μl STARTV-medium. For culturing, 38 μl of the cell suspension was incubated for 1 hour on a poly-D-lysine-coated cover slip in a 35 mm Petri dish under an atmosphere comprising 5% CO2 in air and 100% humidity at 34° C. Subsequently, the injuring toxins (as described below), NRPs and 1 ml of STARTV-medium were added, and the cultures were evaluated after 2-3 days of culture.
Toxicological and drug administration experiments were designed such that 1/100 parts of toxin and neuroprotective drug were administered simultaneously to the freshly prepared cerebellar microexplants. […]
For statistical analysis of survival, four fields (each field having an area of 0.65 mm^2) of each fixed cerebellar culture with the highest cell densities were chosen, and cells displaying neurite outgrowth were counted (survival assay).

On to “REGRRAAPGRAGG-NH2 (listed as Homo sapiens) [SEQ ID NO: 1, 13-mer NRP analogue]”, for which, in experiment [1] (10^−13 M, 24 hrs, BrdU), the “trophoblast proliferation compared to the control” value is given as “no increase in proliferation”. The “increase in trophoblast proliferation” value in experiment [1] (10^−14 M, 24 hrs, BrdU) was 183.3±50.2%. In experiment [1] (any concentration other than 10^−14 M (higher concentrations, data not shown)), the “trophoblast proliferation at other concentrations” value is on record as “no proliferative effect”. For the same substance, the “increase of migratory cells” value in experiment [2] is given as 95%. For the same substance, in the experiment with cerebellar microexplants, the “survival rates, neuroprotection” value stood at 39.1%.
